In EPA's aquatic toxicity sets:

What follows are compounds tested on Tetrahymena pyriformis (assay: 48 h IGC50 (-log10 mol/L); higher = more toxic).

Compound | 48 h IGC50 (-log10 mol/L)
CCOC(=O)C=C(C)C | 2.52
Clc1sccc1Br | 3.73
O=[N+]([O-])c1cccc(O)c1 | 3.51
C#CC(O)CC (stereo not given) | 1.82
C/C=C/CC(=O)OC | 2.72
O=C(O)CCCCl | 2.32
O=[N+]([O-])c1cccc(-c2ccccc2)c1 | 4.57
C=CCCCO | 1.78
C=CC(=O)N(C)C | 1.76
CCCCCCC(=O)c1ccccc1 | 4.56
COc1ccccc1Cl | 3.22
O=C(c1ccccc1)c1ccc(O)cc1O | 4.37
Cc1ccccc1C(=O)c1ccccc1 | 4.37
COC(=O)c1ccc(C#N)cc1 | 2.95
COC(=O)C=C(C)C | 1.94
COC(=O)CCCCCCCCCCCC(=O)OC | 4.65
CC/C=C\CCO | 2.19
NC(=O)c1ccc(Cl)cc1 | 3.09
C=C(C)C#N | 1.35
C=CCI | 3.8
CC(C)(C)c1ccc(CO)cc1 | 3.48
CCOC(=O)CC(C)C | 2.28

Compound | 48 h IGC50 (-log10 mol/L)
NC(=O)c1ccc([N+](=O)[O-])cc1 | 3.18
CC=CC(C)O (stereo not given) | 1.6
CCCCCCC(C)O (stereo not given) | 3
NC(=O)c1ccco1 | 1.56
CCCCCCCC#N | 3.28
CCCC#CCO | 2.62
C=CS(=O)c1ccccc1 (stereo not given) | 3.16
CCC(C)CC(=O)O (stereo not given) | 2.77
O=[N+]([O-])c1ccc(O)c(F)c1 | 4.07
S=C=Nc1ccc2c(c1)CCC2 | 5.48
CC(C)(C)C(=O)O | 2.75
CCc1ccccc1O | 3.16
O=Cc1cccc(O)c1O | 3.11
Nc1cccc([N+](=O)[O-])c1 | 3.03
O=C(O)c1ccccc1Cl | 2.55
O=C(O)CCCCCBr | 3.03
Oc1cc(Cl)cc(Cl)c1 | 4.56
CC(O)CCC(C)O (stereo not given) | 1.04
CCCCCCNC(N)=S | 3.86
Cc1ccnc(C)c1 | 2.35
Nc1cc(Cl)c(Cl)cc1[N+](=O)[O-] | 4.66
Cc1cc(O)c(Cl)cc1C | 3.69

Compound | 48 h IGC50 (-log10 mol/L)
OCc1ccccc1I | 3.33
CCCC(O)CC (stereo not given) | 2.15
N#CCCCC#N | 1.36
CCCCCOC(=O)CC | 2.96
C=CCOC(=O)CC#N | 2.21
N#Cc1ccccc1Cl | 3.28
O=Cc1cccs1 | 2.95
COC(=O)C(C)Br (stereo not given) | 4.18
CCCN=C=S | 4.69
CCCCCl | 2.09
OCCc1cccc2ccccc12 | 3.27
O=C(Cc1ccccc1)c1ccc(O)cc1 | 4.07
CCc1ccc(-c2ccccc2)cc1 | 4.97
CCCCC#N | 1.99
Cc1cccc(C)c1N=C=S | 4.5
O=Cc1ccccc1Br | 3.48
O=C(O)c1cc(Cl)cc(Cl)c1 | 3.27
Oc1c(Cl)cc(Br)cc1Cl | 4.78
c1ccnnc1 | 1.59
CCCC/C=C/C(C)=O | 3.74
OCc1cccc(F)c1 | 2.61
C#CC(=O)OCC | 4.7

Compound | 48 h IGC50 (-log10 mol/L)
Cc1cccc(N)c1C | 2.57
CCOC(=O)C[C@H](O)CC#N | 1.36
CCOC(=O)CCCCCCC(=O)OCC | 3.7
O=C(c1ccccc1)C(F)(F)F | 2.99
CCc1ccc(Br)cc1 | 3.67
OC/C=C\CO | 0.851
NNC(=O)Cc1ccccc1 | 2.52
C=C(C)OC(C)=O | 2.51
C=CCOC(=O)CC | 2.12
O=C/C(Cl)=C/c1ccccc1 | 4.73
CCCCCCC#CCO | 3.65
C#CCOC(=O)CC | 2.35
NC(=O)COc1ccccc1 | 2.27
OCCc1ccc(Cl)cc1 | 3.32
N#Cc1ccccc1N | 2.5
N#CCCc1ccccc1 | 2.84
OCCCCO | 0.764
Oc1cccc(I)c1 | 4.12
CCCCC(C(=O)OCC)C(=O)OCC | 3.56
